Target: D2 receptor (Homo sapiens, UniProt P14416)
Test: [3H]Thymidine uptake assay for D2 intrinsic activity
Assay type: cell-based
Conditions: Table 1; test compound 1 μM; 1 μM Quinpirole = 100% intrinsic activity
Experimental: D2 intrinsic activity of title compounds of the Examples, below, was determined using the [^3H]thymidine uptake assay described below.
[^3H]Thymidine Uptake Assay for D2 Intrinsic Activity
Cells are serum deprived by washing twice with 200 μl of serum-free media. 90 μl serum-free media was added to each well. The plates ware incubated for two to three hours. 10 μl of serum-containing media, as a positive control, vehicle (serum-free media), negative control (an antagonist) or test compounds and standards (10 μl of a 10 μM solution for a final concentration of 1 μM) in serum-free media were added to wells. The plates are returned to the incubator. Eighteen hours later [^3H]thymidine is added (0.5 μCi/well in 10 μl of serum-free media) and the plates are returned to the incubator. […] The plates are returned to the incubator, once again. One hour later the assay is terminated by rapid filtration through Whatman GF/C glass fiber filters. Filters are washed four times with 500 ml of 50 mM Tris-HCl pH 7.0 buffer, for example, using a Brandel MLR-96T cell harvester. […] Intrinsic activity is defined as total uptake (1 μM Quinpirole) minus serum-free media (no uptake). Test compounds are compared to 1 μM Quinpirole (full DA agonist), which was classified as 100% intrinsic activity.

Sequence of D2 receptor (P14416 whole entry): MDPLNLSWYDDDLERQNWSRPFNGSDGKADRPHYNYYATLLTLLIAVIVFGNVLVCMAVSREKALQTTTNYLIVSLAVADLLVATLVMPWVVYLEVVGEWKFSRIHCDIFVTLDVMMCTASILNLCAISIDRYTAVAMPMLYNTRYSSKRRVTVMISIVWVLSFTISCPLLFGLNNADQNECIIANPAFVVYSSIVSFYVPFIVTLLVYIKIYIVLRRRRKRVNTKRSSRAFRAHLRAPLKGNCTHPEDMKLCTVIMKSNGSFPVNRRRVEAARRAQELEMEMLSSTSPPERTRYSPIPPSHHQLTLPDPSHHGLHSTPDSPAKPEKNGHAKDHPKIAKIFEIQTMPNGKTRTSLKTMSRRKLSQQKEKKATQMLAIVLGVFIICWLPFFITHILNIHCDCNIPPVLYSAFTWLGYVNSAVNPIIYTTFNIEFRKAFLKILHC

SMILES	Emax at 1 µM
CC(=O)c1c(F)cccc1N1CCN(CCCCOc2ccc3ccc(=O)[nH]c3n2)CC1 [Example B5, 7-{4-[4-(2-Acetyl-3-fluoro-phenyl)-piperazin-1-yl]-butoxy}-1H-[1,8]naphthyridin-2-one]	2%
O=C1CCc2ccc(OCCCCN3CCN(c4ccc(F)c(Cl)c4Cl)CC3)nc2N1 [Example A8, 7-{4-[4-(2,3-Dichloro-4-fluoro-phenyl)-piperazin-1-yl]-butoxy}-3,4-dihydro-1H-[1,8]naphthyridin-2-one]	7%
O=c1ccc2ccc(OCCCCN3CCN(c4ccccc4-c4ccccc4)CC3)nc2[nH]1 [Example B26, 7-[4-(4-Biphenyl-2-yl-piperazin-1-yl)-butoxy]-1H-[1,8]naphthyridin-2-one]	23%
O=C1CCc2c(C(F)(F)F)cc(OCCCCN3CCN(c4cccc5c4CCC5)CC3)nc2N1 [Example E13, 7-[4-(4-Indan-4-yl-piperazin-1-yl)-butoxy]-5-trifluoromethyl-3,4-dihydro-1H-[1,8]naphthyridin-2-one]	11%
O=C1CCc2cc(F)c(OCCCCN3CCN(c4cccc(Cl)c4Cl)CC3)nc2N1 [Example E3, 7-{4-[4-(2,3-Dichloro-phenyl)-piperazin-1-yl]-butoxy}-6-fluoro-3,4-dihydro-1H-[1,8]naphthyridin-2-one]	31%
O=C1COc2ccc(OCCCCN3CCN(c4cccc(Cl)c4Cl)CC3)nc2N1 [Example G3, 6-{4-[4-(2,3-Dichloro-phenyl)-piperazin-1-yl]-butoxy}-4H-pyrido[3,2-b][1,4]oxazin-3-one]	25%
Cc1cccc(N2CCN(CCCCOc3ccc4c(n3)NC(=O)CC4)CC2)n1 [Example A44, 7-{4-[4-(6-Methyl-pyridin-2-yl)-piperazin-1-yl]-butoxy}-3,4-dihydro-1H-[1,8]naphthyridin-2-one]	51%
O=c1ccc2cnc(OCCCCN3CCN(c4cccc5c4CCC5)CC3)cc2[nH]1 [Example I15, 7-[4-(4-Indan-4-yl-piperazin-1-yl)-butoxy]-1H-[1,6]naphthyridin-2-one]	20%
CC1(C)CCc2cccc(N3CCN(CCCCOc4ccc5ccc(=O)[nH]c5n4)CC3)c2C1=O [Example B36, 7-{4-[4-(7,7-Dimethyl-8-oxo-5,6,7,8-tetrahydro-naphthalen-1-yl)-piperazin-1-yl]-butoxy}-1H-[1,8]naphthyridin-2-one]	39%
CC(=O)c1ccc2c(N3CCN(CCCCOc4ccc5ccc(=O)[nH]c5n4)CC3)cccc2c1 [Example B63, 7-{4-[4-(6-Acetyl-naphthalen-1-yl)-piperazin-1-yl]-butoxy}-1H-[1,8]naphthyridin-2-one]	18%
O=c1ccc2ccc(OCCCCN3CCN(c4cccc5c4CCC5)CC3)nc2[nH]1 [Example B32, 7-[4-(4-Indan-4-yl-piperazin-1-yl)-butoxy]-1H-[1,8]naphthyridin-2-one]	19%
Cc1cccc(N2CCN(CCCCOc3ccc4c(n3)NC(=O)CC4(C)C)CC2)c1Cl [Example D20, 7-{4-[4-(2-Chloro-3-methyl-phenyl)-piperazin-1-yl]-butoxy}-4,4-dimethyl-3,4-dihydro-1H-[1,8]naphthyridin-2-one]	44%
O=C1CCc2cnc(OCCCCN3CCN(c4cccc(Cl)c4Cl)CC3)c(Br)c2N1 [Example I8, 8-Bromo-7-{4-[4-(2,3-dichloro-phenyl)-piperazin-1-yl]-butoxy}-3,4-dihydro-1H-[1,6]naphthyridin-2-one]	25%
O=c1ccc2ccc(OCCCCN3CCN(c4cccc(C(F)(F)F)c4Cl)CC3)nc2[nH]1 [Example B2, 7-{4-[4-(2-Chloro-3-trifluoromethyl-phenyl)-piperazin-1-yl]-butoxy}-1H-[1,8]naphthyridin-2-one]	22%
O=C1CCc2ccc(CCCCCN3CCN(c4cccc(C5CC5)n4)CC3)nc2N1 [Example C18, 7-{5-[4-(6-Cyclopropyl-pyridin-2-yl)-piperazin-1-yl]-pentyl}-3,4-dihydro-1H-[1,8]naphthyridin-2-one]	34%
O=c1ccc2ccc(OCCCCN3CCN(c4cccc5c(Cl)cccc45)CC3)nc2[nH]1 [Example B58, 7-{4-[4-(5-Chloro-naphthalen-1-yl)-piperazin-1-yl]-butoxy}-1H-[1,8]naphthyridin-2-one]	42%
O=c1ccc2ccc(OCCCCN3CCN(c4cccc(F)c4Cl)CC3)nc2[nH]1 [Example B28, 7-{4-[4-(2-Chloro-3-fluoro-phenyl)-piperazin-1-yl]-butoxy}-1H-[1,8]naphthyridin-2-one]	31%
O=c1ccc2ccc(OCCCCN3CCN(c4ccccc4C(F)(F)F)CC3)nc2[nH]1 [Example B16, 7-{4-[4-(2-Trifluoromethyl-phenyl)-piperazin-1-yl]-butoxy}-1H-[1,8]naphthyridin-2-one]	41%
O=C1CCCc2cccc(N3CCN(CCCCOc4ccc5ccc(=O)[nH]c5n4)CC3)c21 [Example B35, 7-{4-[4-(8-Oxo-5,6,7,8-tetrahydro-naphthalen-1-yl)-piperazin-1-yl]-butoxy}-1H-[1,8]naphthyridin-2-one]	20%
CCc1c(F)cccc1N1CCN(CCCCOc2ccc3c(n2)NC(=O)CC3)CC1 [Example A31, 7-{4-[4-(2-Ethyl-3-fluoro-phenyl)-piperazin-1-yl]-butoxy}-3,4-dihydro-1H-[1,8]naphthyridin-2-one]	26%
O=C1CCc2ccc(OCCCCN3CCN(c4cccc5c4CC(F)(F)C5)CC3)nc2N1 [Example A62, 7-{4-[4-(2,2-Difluoro-indan-4-yl)-piperazin-1-yl]-butoxy}-3,4-dihydro-1H-[1,8]naphthyridin-2-one]	27%
Cc1c(Cl)cccc1N1CCN(CCCCOc2ccc3c(n2)NC(=O)CC3(C)C)CC1 [Example D21, 7-{4-[4-(3-Chloro-2-methyl-phenyl)-piperazin-1-yl]-butoxy}-4,4-dimethyl-3,4-dihydro-1H-[1,8]naphthyridin-2-one]	24%

Same assay, conditions: Table 2; test compound 1 μM; 1 μM Quinpirole = 100% intrinsic activity

SMILES	Emax at 1 µM
CC1C=Cc2cccc(N3CCN(CCCCOc4ccc5ccc(=O)[nH]c5n4)CC3)c2O1 (stereo not shown) [Example B4′, 7-{4-[4-(2-Methyl-2H-chromen-8-yl)-piperazin-1-yl]-butoxy}-1H-[1,8]naphthyridin-2-one]	28%
O=c1ccc2cnc(OCCCCN3CCN(c4cccc5c4OC(F)(F)O5)CC3)cc2[nH]1 [Example H9′, 7-{4-[4-(2,2-Difluoro-benzo[1,3]dioxol-4-yl)-piperazin-1-yl]-butoxy}-1H-[1,6]naphthyridin-2-one]	31%
CCN1CCCc2c1cccc2N1CCN(CCCCOc2ccc3c(n2)NC(=O)CC3)CC1 [Example A33′, 7-{4-[4-(1-Ethyl-1,2,3,4-tetrahydro-quinolin-5-yl)-piperazin-1-yl]-butoxy}-3,4-dihydro-1H-[1,8]naphthyridin-2-one]	18%
O=c1ccc2ccc(OCCCCN3CCN(c4cccc5c4OC4(C=C5)CCCC4)CC3)nc2[nH]1 [Example B6′, 7-{4-[4-(Spiro[chromene-2,1′-cyclopentan]-8-yl)-piperazin-1-yl]-butoxy}-1H-[1,8]naphthyridin-2-one]	33%
O=c1ccc2cnc(OCCCCN3CCN(c4cccc5c4OCC5)CC3)cc2[nH]1 [Example H6′, 7-{4-[4-(2,3-Dihydro-benzofuran-7-yl)-piperazin-1-yl]-butoxy}-1H-[1,6]naphthyridin-2-one]	21%
O=C1CCc2cc(F)c(OCCCCN3CCN(c4cccc5cccnc45)CC3)nc2N1 [Example D1′, 6-Fluoro-7-[4-(4-quinolin-8-yl-piperazin-1-yl)-butoxy]-3,4-dihydro-1H-[1,8]naphthyridin-2-one]	24%
O=c1ccc2cnc(OCCCCN3CCN(c4cccc5c4OCC5)CC3)nc2[nH]1 [Example G4′, 2-{4-[4-(2,3-Dihydro-benzofuran-7-yl)-piperazin-1-yl]-butoxy}-8H-pyrido[2,3-d]pyrimidin-7-one]	13%
CC(=O)N1CCCc2c(N3CCN(CCCCOc4ccc5ccc(=O)[nH]c5n4)CC3)cccc21 [Example B27′, 7-{4-[4-(1-Acetyl-1,2,3,4-tetrahydro-quinolin-5-yl)-piperazin-1-yl]-butoxy}-1H-[1,8]naphthyridin-2-one]	34%
O=c1ccc2ccc(OCCCCN3CCN(c4cccc5ccc(=O)[nH]c45)CC3)nc2[nH]1 [Example B36′, 7-{4-[4-(2-Oxo-1,2-dihydro-quinolin-8-yl)-piperazin-1-yl]-butoxy}-1H-[1,8]naphthyridin-2-one]	36%
O=C1CCc2ccc(OCCCCN3CCN(c4cccc5nccnc45)CC3)nc2N1 [Example A44′, 7-[4-(4-Quinoxalin-5-yl-piperazin-1-yl)-butoxy]-3,4-dihydro-1H-[1,8]naphthyridin-2-one]	29%
O=c1ccc2ccc(OCCCCN3CCN(c4cccc5nonc45)CC3)nc2[nH]1 [Example B39′, 7-[4-(4-Benzo[1,2,5]oxadiazol-4-yl-piperazin-1-yl)-butoxy]-1H-[1,8]naphthyridin-2-one]	29%
O=c1ccc2cnc(OCCCCN3CCN(c4cccc5c4OCCC5)CC3)cc2[nH]1 [Example H8′, 7-[4-(4-Chroman-8-yl-piperazin-1-yl)-butoxy]-1H-[1,6]naphthyridin-2-one]	32%
O=c1ccc2cnc(OCCCCN3CCN(c4cccc5c4OCCCO5)CC3)nc2[nH]1 [Example G5′, 2-{4-[4-(3,4-Dihydro-2H-benzo[b][1,4]dioxepin-6-yl)-piperazin-1-yl]-butoxy}-8H-pyrido[2,3-d]pyrimidin-7-one]	7%
O=C1CCc2cc(F)c(OCCCCN3CCN(c4cccc5cnccc45)CC3)nc2N1 [Example D2′, 6-Fluoro-7-[4-(4-isoquinolin-5-yl-piperazin-1-yl)-butoxy]-3,4-dihydro-1H-[1,8]naphthyridin-2-one]	40%
O=C1CCc2ccc(OCCCCN3CCN(c4cccc5c4OCC5)CC3)nc2N1 [Example A2′, 7-{4-[4-(2,3-Dihydro-benzofuran-7-yl)-piperazin-1-yl]-butoxy}-3,4-dihydro-1H-[1,8]naphthyridin-2-one]	21%

From patent publication US7160888B2, “[1,8]naphthyridin-2-ones and related compounds for the treatment of schizophrenia” (Warner Lambert Company LLC, priority 2003, dated 2007)
